Tests used:
[1] = molecular target: T1, c-Kit(V654A) (Homo sapiens, UniProt P10721, V654A); assay: c-Kit(V654A) assay; assay type: biochemical; conditions: recombinant human c-Kit aa 544-end, 200 μM ATP, 1.4E-06 means 1.4×10^−6, read-out: Inhibition (IC50) of c-KIT (V654A)
T1 construct: amino acids 544-end containing the V654A mutation; GST (N)
How it was run: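 Radiometric filter-binding read-out: substrate 33P incorporation counted by scintillation after P30 filtermat washes in 75 mM phosphoric acid and methanol. Enzyme: N-GST recombinant human c-Kit aa 544-end carrying V654A.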

[2] = molecular target: T2, PDGFRalpha(V561D) (Homo sapiens, UniProt P16234, V561D); assay: PDGFRalpha(V561D) assay; assay type: biochemical; conditions: recombinant human PDGFRalpha aa 550-end, 200 μM ATP, 1.4E-06 means 1.4×10^−6, read-out: Inhibition (IC50) of PDGFRα (V561D)
T2 construct: recombinant human PDGFRalpha, amino acids 550end containing the V561 D mutation; 6His (N)
How it was run: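 Radiometric filter-binding assay: substrate phosphorylation by recombinant N-His-tagged human PDGFRα 550-end V561D was quenched with 3% phosphoric acid after 40 min at room temperature, then counted.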

T2 sequence (P16234 550-1089 V561D): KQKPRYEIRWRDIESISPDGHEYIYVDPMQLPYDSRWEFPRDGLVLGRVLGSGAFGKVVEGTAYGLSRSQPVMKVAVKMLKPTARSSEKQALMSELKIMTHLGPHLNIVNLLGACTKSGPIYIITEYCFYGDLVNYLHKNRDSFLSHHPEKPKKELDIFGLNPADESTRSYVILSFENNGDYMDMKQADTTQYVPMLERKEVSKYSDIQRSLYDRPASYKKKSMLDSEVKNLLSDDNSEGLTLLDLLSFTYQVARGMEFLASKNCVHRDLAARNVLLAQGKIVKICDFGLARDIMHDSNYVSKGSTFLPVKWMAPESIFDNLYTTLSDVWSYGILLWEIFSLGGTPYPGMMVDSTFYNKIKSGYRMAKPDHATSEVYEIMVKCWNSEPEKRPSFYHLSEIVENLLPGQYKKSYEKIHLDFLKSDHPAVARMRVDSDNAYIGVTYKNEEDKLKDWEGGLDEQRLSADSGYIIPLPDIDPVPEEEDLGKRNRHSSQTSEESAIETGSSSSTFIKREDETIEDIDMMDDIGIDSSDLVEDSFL
T1 sequence (P10721 544-976 V654A): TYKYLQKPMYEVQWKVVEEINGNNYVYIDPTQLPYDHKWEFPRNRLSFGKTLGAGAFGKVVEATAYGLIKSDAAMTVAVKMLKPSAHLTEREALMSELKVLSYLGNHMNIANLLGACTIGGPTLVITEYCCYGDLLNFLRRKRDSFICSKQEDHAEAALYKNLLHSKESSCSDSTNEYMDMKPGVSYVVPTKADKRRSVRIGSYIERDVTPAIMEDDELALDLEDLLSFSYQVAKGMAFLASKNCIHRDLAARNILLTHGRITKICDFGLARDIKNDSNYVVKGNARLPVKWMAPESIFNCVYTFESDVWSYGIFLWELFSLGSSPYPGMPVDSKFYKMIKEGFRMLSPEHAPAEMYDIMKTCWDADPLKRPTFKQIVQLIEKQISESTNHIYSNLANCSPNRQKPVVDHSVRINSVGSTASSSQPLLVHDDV

Structure (SMILES)	IC50 [1] [nM]	IC50 [2] [nM]
COCCN(C)C(=O)c1ccc(-n2cc(-c3cc4cc(F)ccc4[nH]c3=O)nn2)cc1 [A211, 4-[4-(6-fluoro-2-oxo-1,2-dihydro-quinolin-3-yl)-[1,2,3]triazol-1-yl]-N-(2-methoxy-ethyl)-N-methyl-benzamide]	190	85
COCCN(C)C(=O)c1ccc(-n2cc(-c3cc4cc(F)c(F)cc4[nH]c3=O)nn2)cc1 [A212, 4-[4-(6,7-difluoro-2-oxo-1,2-dihydro-quinolin-3-yl)-[1,2,3]triazol-1-yl]-N-(2-methoxy-ethyl)-N-methyl-benzamide]	1300	160
O=C(c1ccc(-n2cc(-c3cc4cc(F)ccc4[nH]c3=O)nn2)cc1)N1CCCCC1CO (centres unmarked) [A214, 6-fluoro-3-{1-[4-(2-hydroxymethyl-piperidine-1-carbonyl)-phenyl]-1H-[1,2,3]triazol-4-yl}-1H-quinolin-2-one]	72	79
COC[C@@H]1CC[C@@H](COC)N1C(=O)c1ccc(-n2cc(-c3cc4cc(F)ccc4[nH]c3=O)nn2)cc1 [A217, 3-{1-[4-((2S,5S)-2,5-bis-methoxymethyl-pyrrolidine-1-carbonyl)-phenyl]-1H-[1,2,3]triazol-4-yl}-6-fluoro-1H-quinolin-2-one]	350	46
COC[C@@H]1CC[C@@H](COC)N1C(=O)c1ccc(-n2cc(-c3cc4cc(F)c(F)cc4[nH]c3=O)nn2)cc1 [A219, 3-{1-[4-((2S,5S)-2,5-bis-methoxymethyl-pyrrolidine-1-carbonyl)-phenyl]-1H-[1,2,3]triazol-4-yl}-6,7-difluoro-1H-quinolin-2-one]	1600	320
COC[C@H]1CC[C@H](COC)N1C(=O)c1ccc(-n2cc(-c3cc4cc(F)c(F)cc4[nH]c3=O)nn2)cc1 [A220, 3-{1-[4-((2R,5R)-2,5-bis-methoxymethyl-pyrrolidine-1-carbonyl)-phenyl]-1H-[1,2,3]triazol-4-yl}-6,7-difluoro-1H-quinolin-2-one]	980	500
O=C(c1ccc(-n2cc(-c3cc4cc(F)c(F)cc4[nH]c3=O)nn2)cc1)N1CCC(OCCN2CCOCC2)C1 (centres unmarked) [A221, 6,7-difluoro-3-(1-{4-[3-(2-morpholin-4-yl-ethoxy)-pyrrolidine-1-carbonyl]-phenyl}-1H-[1,2,3]triazol-4-yl)-1H-quinolin-2-one]	200	380
Cc1cc2[nH]c(=O)c(-c3cn(-c4ccc(C(=O)N5CCN(C)CC5)cc4)nn3)cc2cc1F [A222, 6-fluoro-7-methyl-3-{1-[4-(4-methyl-piperazine-1-carbonyl)-phenyl]-1H-[1,2,3]triazol-4-yl}-1H-quinolin-2-one]	72	210
COCCOC[C@@H]1CCN(C(=O)c2ccc(-n3cc(-c4cc5cc(F)c(F)cc5[nH]c4=O)nn3)cc2)C1 [A223, 6,7-difluoro-3-(1-{4-[(R)-3-(2-methoxy-ethoxymethyl)-pyrrolidine-1-carbonyl]-phenyl}-1H-[1,2,3]triazol-4-yl)-1H-quinolin-2-one]	350	410
O=C(c1ccc(-n2cc(-c3cc4cc(F)ccc4[nH]c3=O)nn2)cc1)N1CCC(OCCN2CCCC2)C1 (centres unmarked) [A224, 6-fluoro-3-(1-{4-[3-(2-pyrrolidin-1-yl-ethoxy)-pyrrolidine-1-carbonyl]-phenyl}-1H-[1,2,3]triazol-4-yl)-1H-quinolin-2-one]	70	280
O=C(c1ccc(-n2cc(-c3cc4cc(F)c(F)cc4[nH]c3=O)nn2)cc1)N1CCC(OCCN2CCCC2)C1 (centres unmarked) [A225, 6,7-difluoro-3-(1-{4-[3-(2-pyrrolidin-1-yl-ethoxy)-pyrrolidine-1-carbonyl]-phenyl}-1H-[1,2,3]triazol-4-yl)-1H-quinolin-2-one]	190	580
O=C(c1ccc(-n2cc(-c3cc4cc(F)ccc4[nH]c3=O)nn2)cc1)N1C[C@H](O)C[C@H]1CO [A227, 6-fluoro-3-{1-[4-((2S,4R)-4-hydroxy-2-hydroxymethyl-pyrrolidine-1-carbonyl)-phenyl]-1H-[1,2,3]triazol-4-yl}-1H-quinolin-2-one]	92	140
O=C(c1ccc(-n2cc(-c3cc4cc(F)ccc4[nH]c3=O)nn2)cc1)N1CCCC2(COC2)C1 [A228, 6-fluoro-3-{1-[4-(2-oxa-6-aza-spiro[3.5]nonane-6-carbonyl)-phenyl]-1H-[1,2,3]triazol-4-yl}-1H-quinolin-2-one]	74	300
O=C(c1ccc(-n2cc(-c3cc4cc(F)ccc4[nH]c3=O)nn2)cc1)N1CCOC2(COC2)C1 [A231, 3-{1-[4-(2,5-dioxa-8-aza-spiro[3.5]nonane-8-carbonyl)-phenyl]-1H-[1,2,3]triazol-4-yl}-6-fluoro-1H-quinolin-2-one]	90	340
O=C(NC1COC1)c1ccc(-n2cc(-c3cc4cc(F)ccc4[nH]c3=O)nn2)cc1 [A232, 4-[4-(6-fluoro-2-oxo-1,2-dihydro-quinolin-3-yl)-[1,2,3]triazol-1-yl]-N-oxetan-3-yl-benzamide]	160	980
COCCOC[C@H]1CCN(C(=O)c2ccc(-n3cc(-c4cc5cc(F)c(F)cc5[nH]c4=O)nn3)cc2)C1 [A233, 6,7-difluoro-3-(1-{4-[(S)-3-(2-methoxy-ethoxymethyl)-pyrrolidine-1-carbonyl]-phenyl}-1H-[1,2,3]triazol-4-yl)-1H-quinolin-2-one]	96	600
CO[C@H]1CN(C(=O)c2ccc(-n3cc(-c4cc5cc(F)ccc5[nH]c4=O)nn3)cc2)C[C@H]1OC [A237, 3-{1-[4-((3R,4S)-3,4-dimethoxy-pyrrolidine-1-carbonyl)-phenyl]-1H-[1,2,3]triazol-4-yl}-6-fluoro-1H-quinolin-2-one]	81	490
COCCN(CCOC)C(=O)c1ccc(-n2cc(-c3cc4cc(F)ccc4[nH]c3=O)nn2)cc1 [A238, 4-[4-(6-fluoro-2-oxo-1,2-dihydro-quinolin-3-yl)-[1,2,3]triazol-1-yl]-N,N-bis-(2-methoxy-ethyl)-benzamide]	79	620

These reach a lower IC50 [1]. Values come first.

IC50 [1] [nM]	IC50 [2] [nM]	Structure (SMILES)
65	37	O=C(c1ccc(-n2cc(-c3cc4cc(F)ccc4[nH]c3=O)nn2)cc1)N1CCOC[C@H]1CO [A213, 6-fluoro-3-{1-[4-((R)-3-hydroxymethyl-morpholine-4-carbonyl)-phenyl]-1H-[1,2,3]triazol-4-yl}-1H-quinolin-2-one]
64	220	COC[C@@H]1CCCN1C(=O)c1ccc(-n2cc(-c3cc4cc(F)ccc4[nH]c3=O)nn2)cc1 [A215, 6-fluoro-3-{1-[4-((S)-2-methoxymethyl-pyrrolidine-1-carbonyl)-phenyl]-1H-[1,2,3]triazol-4-yl}-1H-quinolin-2-one]
52	29	O=C(c1ccc(-n2cc(-c3cc4cc(F)ccc4[nH]c3=O)nn2)cc1)N1CCOC[C@@H]1CO [A216, 6-fluoro-3-{1-[4-((S)-3-hydroxymethyl-morpholine-4-carbonyl)-phenyl]-1H-[1,2,3]triazol-4-yl}-1H-quinolin-2-one]
64	59	COC[C@H]1CC[C@H](COC)N1C(=O)c1ccc(-n2cc(-c3cc4cc(F)ccc4[nH]c3=O)nn2)cc1 [A218, 3-{1-[4-((2R,5R)-2,5-bis-methoxymethyl-pyrrolidine-1-carbonyl)-phenyl]-1H-[1,2,3]triazol-4-yl}-6-fluoro-1H-quinolin-2-one]
55	89	NC(=O)[C@@H]1CCN(C(=O)c2ccc(-n3cc(-c4cc5cc(F)ccc5[nH]c4=O)nn3)cc2)C1 [A226, (R)-1-{4-[4-(6-fluoro-2-oxo-1,2-dihydro-quinolin-3-yl)-[1,2,3]triazol-1-yl]-benzoyl}-pyrrolidine-3-carboxylic acid amide]
41	150	O=C(c1ccc(-n2cc(-c3cc4cc(F)ccc4[nH]c3=O)nn2)cc1)N1CCC2(CC1)COC2 [A229, 6-fluoro-3-{1-[4-(2-oxa-7-aza-spiro[3.5]nonane-7-carbonyl)-phenyl]-1H-[1,2,3]triazol-4-yl}-1H-quinolin-2-one]
49	95	O=C(c1ccc(-n2cc(-c3cc4cc(F)ccc4[nH]c3=O)nn2)cc1)N1CCN(C2COC2)CC1 [A230, 6-fluoro-3-{1-[4-(4-oxetan-3-yl-piperazine-1-carbonyl)-phenyl]-1H-[1,2,3]triazol-4-yl}-1H-quinolin-2-one]
50	740	O=C(c1ccc(-n2cc(-c3cc4cc(F)ccc4[nH]c3=O)nn2)cc1)N1CCCC12COC2 [A234, 6-fluoro-3-{1-[4-(2-oxa-5-aza-spiro[3.4]octane-5-carbonyl)-phenyl]-1H-[1,2,3]triazol-4-yl}-1H-quinolin-2-one]
42	140	O=C(c1ccc(-n2cc(-c3cc4cc(F)ccc4[nH]c3=O)nn2)cc1)N1CC2(COC2)C1 [A235, 6-fluoro-3-{1-[4-(2-oxa-6-aza-spiro[3.3]heptane-6-carbonyl)-phenyl]-1H-[1,2,3]triazol-4-yl}-1H-quinolin-2-one]
53	560	COCCOC[C@H]1CCN(C(=O)c2ccc(-n3cc(-c4cc5cc(F)ccc5[nH]c4=O)nn3)cc2)C1 [A236, 6-fluoro-3-(1-{4-[(S)-3-(2-methoxy-ethoxymethyl)-pyrrolidine-1-carbonyl]-phenyl}-1H-[1,2,3]triazol-4-yl)-1H-quinolin-2-one]

Source: patent publication US11939314B2, “Quinolin-2-one derivatives” (MERCK PATENT GMBH, priority 2016, dated 2024)
